Data: ChEMBL document CHEMBL5137008, “Recent advances of antitumor shikonin/alkannin derivatives: A comprehensive overview focusing on structural classification, synthetic approaches, and mechanisms of action” (Eur J Med Chem, 2022)
Values after ≈ are worked out from the molar mass of the structure shown. Blank lines part the entries; values can stand above or below the compound they belong to.

Tests used:
HeLa [1] = test: Antiproliferative activity against human HeLa cells assessed as inhibition of cell proliferation incubated for 20 hrs by MTT assay; format: functional, cell-based
HepG2 [2] = test: Antiproliferative activity against human HepG2 cells assessed as inhibition of cell proliferation incubated for 20 hrs by MTT assay; format: functional, cell-based; settings: HepG2, 20 h
MCF7 [3] = test: Antiproliferative activity against human MCF7 cells assessed as inhibition of cell proliferation incubated for 20 hrs by MTT assay; format: functional, cell-based; settings: MCF7, 20 h
[4] = Antiproliferative activity against human BGC cells assessed as inhibition of cell proliferation incubated for 20 hrs by MTT assay; format: functional, cell-based
A549 [5] = test: Antiproliferative activity against human A549 cells assessed as inhibition of cell proliferation incubated for 20 hrs by MTT assay; format: functional, cell-based; settings: A549, 20 h
L02 = test: Antiproliferative activity against human L02 cells assessed as inhibition of cell proliferation incubated for 20 hrs by MTT assay; format: functional, cell-based; settings: L02, 20 h
[6] = Antitubulin activity against bovine brain tubulin polymerization preincubated with compound followed by GTP addition by turbidimetry-based spectrophotometric method; design: species or system Bos taurus
MG-63 = test: Antiproliferative activity against human MG-63 cells incubated for 24 hrs by MTT assay; format: functional, cell-based; settings: MG-63, 24 h
MCF7 [7] = test: Antiproliferative activity against human MCF7 cells incubated for 24 hrs by MTT assay; format: functional, cell-based; settings: MCF7, 24 h
B16-F10 = test: Antiproliferative activity against mouse B16-F10 cells incubated for 24 hrs by MTT assay; format: functional, cell-based; settings: B16-F10, 24 h
HepG2 [8] = test: Antiproliferative activity against human HepG2 cells incubated for 24 hrs by MTT assay; format: functional, cell-based; settings: HepG2, 24 h
MDA-MB-231 = test: Antiproliferative activity against human MDA-MB-231 cells incubated for 24 hrs by MTT assay; format: functional, cell-based; settings: MDA-MB-231, 24 h
[9] = Cytotoxicity against human L02 incubated for 24 hrs by MTT assay; format: toxicity, cell-based; settings: L02 cells
[10] = Cytotoxicity against African green monkey Vero cells incubated for 24 hrs by MTT assay; format: toxicity, cell-based, Chlorocebus sabaeus
[11] = Cytotoxicity against human MCF-10A incubated for 24 hrs by MTT assay; format: toxicity, cell-based; settings: MCF-10A cells
L1210 = test: Anticancer activity against mouse L1210 cells; format: functional; settings: read-out: ED50 (the source's name)
A549 [12] = test: Anticancer activity against human A549 cells; format: functional; settings: read-out: ED50 (the source's name)
Sarcoma-180 = test: Antitumor activity against mouse Sarcoma-180 cells xenografted in ip dosed ICR mouse assessed as tumor growth inhibition rate administered daily for 7 days relative to control; format: functional; settings: time 7 day
[13] = Cytotoxicity against human skin fibroblast cells assessed as reduction in cell viability incubated for 72 hrs by MTT assay; format: toxicity, cell-based
K562 = test: Anticancer activity against human K562 cells assessed as reduction in cell viability for 72 hrs by MTT assay; format: functional, cell-based; settings: K562, 72 h
MCF7 [14] = test: Anticancer activity against human MCF7 cells assessed as reduction in cell viability for 72 hrs by MTT assay; format: functional, cell-based; settings: MCF7, 72 h
HCT-15 = test: Anticancer activity against human HCT-15 cells assessed as reduction in cell viability for 72 hrs by MTT assay; format: functional, cell-based; settings: HCT-15, 72 h
[15] = Cytotoxicity against human skin fibroblast cells incubated for 24 hrs by MTT assay; format: toxicity, cell-based
[16] = Anticancer activity against human A875 cells assessed as inhibition of cell growth incubated for 24 hrs by MTT assay; format: functional, cell-based; settings: A875, 24 h
HepG2 [17] = test: Anticancer activity against human HepG2 cells assessed as inhibition of cell growth incubated for 24 hrs by MTT assay; format: functional, cell-based; settings: HepG2, 24 h
MCF7 [18] = test: Antiproliferative activity against human MCF7 cells assessed as inhibition of cell growth incubated for 24 hrs in presence of foetal bovine serum by MTT assay; format: functional, cell-based; settings: MCF7, 24 h
A549 [19] = test: Antiproliferative activity against human A549 cells assessed as inhibition of cell growth incubated for 24 hrs in presence of foetal bovine serum by MTT assay; format: functional, cell-based; settings: A549, 24 h
[20] = Cytotoxicity against human L02 cells assessed as inhibition of cell growth incubated for 24 hrs in presence of foetal bovine serum by MTT assay; format: toxicity, cell-based
[21] = Cytotoxicity against human HEK293T cells assessed as inhibition of cell growth incubated for 24 hrs in presence of foetal bovine serum by MTT assay; format: toxicity, cell-based, HEK-293T
HeLa [22] = test: cells; settings: Homo sapiens, 24 h

Structure (SMILES): CC(=O)O[C@@H]1[C@@H](OC(C)=O)[C@H](Sc2cc(O)c3c(c2O)C(=O)C=C([C@@H](CC=C(C)C)SC2OC[C@@H](OC(C)=O)[C@H](OC(C)=O)[C@H]2OC(C)=O)C3=O)OC[C@H]1OC(C)=O (stereo not given in full)
IC50 [6]: 4670 nM
IC50 (MG-63): 1220 nM
IC50 (MCF7 [7]): 2370 nM
IC50 (B16-F10): 4530 nM
IC50 (HepG2 [8]): 1220 nM
IC50 (MDA-MB-231): 10600 nM
IC50 at 24 h [9]: 132000 nM
IC50 at 24 h [10]: 82500 nM
IC50 at 24 h [11]: 78100 nM

Structure (SMILES): COc1cc2c(c(OC)c1OC)-c1ccc(OC)c(=O)cc1[C@@H](NC(C)=O)CC2 [COLCHICINE]
IC50 [16]: 750 nM
IC50 (HepG2 [17]): 4650 nM
IC50 (MCF7 [18]): 220 nM
IC50 (A549 [19]): 470 nM
IC50 at 24 h [20]: 2300 nM
IC50 at 24 h [21]: 1030 nM
IC50 (HeLa [22]): 17800 nM

More lines, main results first:

IC50 (HeLa [1]): 1930 nM
IC50 (HepG2 [2]): 5350 nM
IC50 (MCF7 [3]): 2550 nM
IC50 (A549 [5]): > 100000 nM
Structure (SMILES): CC(C)=CC[C@@H](OC(=O)[C@@H](C)N1C(=O)c2ccccc2C1=O)C1=CC(=O)c2c(O)ccc(O)c2C1=O
IC50 [4]: 13300 nM
IC50 (L02): > 100000 nM

EC50 (L1210): 0.109 µg/mL (≈ 0.441 µM)
EC50 (A549 [12]): > 10 µg/mL
Structure (SMILES): CO/N=C/c1cc(O)c2c(c1O)C(=O)C=CC2=O
T/C (Sarcoma-180): 318%

IC50 (K562): 1500 nM
IC50 (MCF7 [14]): 2620 nM
IC50 (HCT-15): 1110 nM
Structure (SMILES): CC(C)=CC[C@H](O)C1=CC(=O)c2c(O)ccc(O)c2C1=O [ALKANNIN]
IC50 at 72 h [13]: 1500 nM
IC50 at 24 h [15]: 1800 nM
